In BindingDB's records for patent US12065430 (Taiho Pharmaceutical, 2024):

Target: T1, Son of sevenless homolog 1 [564-1049]/GTPase KRas [G12C] (UniProt P01116+Q07889, G12C)
T1 construct: 564-1049
Experiment: Evaluation of Inhibitory Activity of Compounds on KRAS G12C Nucleotide (GDP-GTP) Exchange Reaction
Method: The inhibitory activity of compounds on exchange reaction of GDP into GppNHp in Bodipy (trademark) FL-bound KRAS G12C was examined by fluorescence measurement using human recombinant KRAS G12C and SOS1 proteins.For the preparation of KRAS G12C to which Bodipy FL GDP was bound, first, […] KRAS G12C (amino acid region: 1-169) and 1 mM Bodipy FL GDP (Invitrogen, G22360) were incubated for 1 hour in a buffer (20 mM Tris-HCl (pH 7.5), 50 mM NaCl, 1 mM DTT) in ice in the presence of 2.5 mM EDTA. Thereafter, MgCl2 with a final concentration of 10 mM was added, and the mixture was incubated at room temperature for 30 minutes. The protein was allowed to pass through a NAP-5 column to remove free nucleotides and was used for compound evaluation.For the measurement of the inhibitory activity of compounds on nucleotide exchange reaction, first, the compound of the present invention was diluted stepwise with dimethyl sulfoxide (DMSO). Subsequently, a solution of the gradually diluted compound of the present invention in DMSO (the final concentration of DMSO: 5%) and KRAS G12C (25 nM) bound to Bodipy FL GDP were added to a reaction buffer (20 mM Tris-HCl (pH 7.5), 100 mM NaCl, 1 mM MgCl2, 2 mM DTT, 0.1% Tween20), followed by preincubation at 25° C. for 4 hours. Thereafter, Son of Sevenless Homolog 1 (SOS1, amino acid region: 564-1049) and GppNHp (GMPPNP, Jena Bioscience GmbH, NU-401-50) were added such that their final concentration was 100 nM and 1 μM respectively, followed by reaction for 30 minutes. The change in fluorescence intensity of Bodipy FL (excitation wavelength: 485 nm, fluorescence wavelength: 520 nm) immediately after the start of reaction and after 30 minutes from the start of reaction was standardized. The signal value for only DMSO was determined to be 0% inhibition, and the signal value for no addition of GppNHp was determined to be 100% inhibition. The compound concentration at which 50% inhibition is achieved was determined to be IC50 (nM), and was calculated.

T1 sequence (P01116 whole entry G12C): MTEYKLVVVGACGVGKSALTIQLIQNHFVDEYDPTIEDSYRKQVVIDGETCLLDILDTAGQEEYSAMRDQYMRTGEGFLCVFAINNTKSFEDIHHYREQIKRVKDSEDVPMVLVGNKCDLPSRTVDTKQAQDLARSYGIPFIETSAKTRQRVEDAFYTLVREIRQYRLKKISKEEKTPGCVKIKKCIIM
T1 sequence (Q07889 564-1049): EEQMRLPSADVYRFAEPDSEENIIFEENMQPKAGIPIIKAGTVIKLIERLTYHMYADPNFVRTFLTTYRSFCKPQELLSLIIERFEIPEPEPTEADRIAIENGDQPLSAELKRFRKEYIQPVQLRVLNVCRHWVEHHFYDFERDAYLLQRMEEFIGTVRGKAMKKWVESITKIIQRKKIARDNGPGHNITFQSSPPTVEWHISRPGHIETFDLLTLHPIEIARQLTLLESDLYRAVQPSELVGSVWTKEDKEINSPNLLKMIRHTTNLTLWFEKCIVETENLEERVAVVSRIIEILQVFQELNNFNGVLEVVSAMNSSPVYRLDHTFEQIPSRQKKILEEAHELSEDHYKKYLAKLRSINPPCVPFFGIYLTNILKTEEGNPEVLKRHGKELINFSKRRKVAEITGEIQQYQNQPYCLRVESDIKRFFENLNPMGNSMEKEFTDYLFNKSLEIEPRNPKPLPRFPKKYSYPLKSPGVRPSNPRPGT

Compound	IC50
C=CC(=O)N1CC(NC(=O)c2c(Cl)nc(CNc3n[nH]c4cc(Cl)c(C(C)(C)C)cc34)n2[C@H]2C[C@H](C)CC[C@H]2C(C)C)C1 [US12065430, Example 111]	15 nM
C=CC(=O)N1CC(NC(=O)c2oc(CNc3n[nH]c4cc(Cl)c(C(C)(C)C)cc34)nc2C)C1 [US12065430, Example 11]	1060 nM
C=CC(=O)N1CC(NC(=O)c2c(Cl)nc(CNc3n[nH]c4cc(Cl)c(C(C)(C)C)cc34)n2C2CCCOC2)C1 (stereo not given) [US12065430, Example 104]	9 nM
C=CC(=O)N1CC(NC(=O)c2c(Cl)nc(CNc3n[nH]c4cc(Cl)c(C(C)(C)C)cc34)n2[C@@H]2CCN(Cc3ccccc3)C2)C1 [US12065430, Example 122]	6 nM
C=CC(=O)N1CC(NC(=O)c2c(Cl)nc(CNc3n[nH]c4cc(Cl)c(C(C)(C)C)cc34)n2C)C1 [US12065430, Example 29]	6 nM
C=CC(=O)N1CC(NC(=O)c2c(C(F)(F)F)nc(CNc3n[nH]c4cc(Cl)c(C(C)(C)C)cc34)n2C)C1 [US12065430, Example 25]	163 nM
C=CC(=O)N1CC(NC(=O)c2c(Cl)nc(CNc3n[nH]c4cc(Cl)c(C(C)(C)C)cc34)n2-c2ccccn2)C1 [US12065430, Example 94]	118 nM
C=CC(=O)N1CC(NC(=O)c2c(C)nc(CNc3n[nH]c4cc(Cl)c(C(C)(C)C)cc34)n2CCOC)C1 [US12065430, Example 14]	24 nM
C=CC(=O)N1CC(NC(=O)c2c(Cl)nc(CNc3n[nH]c4cc(Cl)c(C(C)(C)C)cc34)n2C2CCOCC2)C1 [US12065430, Example 101]	7 nM
C=CC(=O)N1CC(NC(=O)c2c(C)c(CNc3n[nH]c4cc(Cl)c(C(C)(C)C)cc34)nn2C)C1 [US12065430, Example 10]	129 nM
C=CC(=O)N1CC(NC(=O)c2c(Cl)c(CNc3n[nH]c4cc(Cl)c(C(C)(C)C)cc34)nn2C)C1 [US12065430, Example 6]	791 nM
C=CC(=O)N1CC(NC(=O)c2c(Cl)nc(CNc3n[nH]c4cc(Cl)c(C(C)(C)C)cc34)n2C2CC=CC2)C1 [US12065430, Example 98]	7 nM
C=CC(=O)N1C[C@@H](C)[C@@H](NC(=O)c2c(Cl)nc(CNc3n[nH]c4cc(Cl)c(C(C)(C)C)cc34)n2C)C1 [US12065430, Example 78]	20 nM
C=CC(=O)N1CC(NC(=O)c2c(Cl)nc(CNc3n[nH]c4cc(Cl)c(C(C)(C)C)cc34)n2[C@@H]2CCN(c3ccccn3)C2)C1 [US12065430, Example 124]	6 nM
C=CC(=O)N1C[C@H](NC(=O)c2c(Cl)nc(CNc3n[nH]c4cc(Cl)c(C(C)(C)C)cc34)n2C)[C@@H](F)C1 [US12065430, Example 76]	13 nM
C=CC(=O)N1CC(NC(=O)c2cnc(CNc3n[nH]c4cc(Cl)c(C=C)cc34)n2C)C1 [US12065430, Example 38]	2170 nM
C=CC(=O)N1CC(NC(=O)c2c(C)nc(CNc3n[nH]c4cc(Cl)c(C(C)(C)C)cc34)n2C2CC2)C1 [US12065430, Example 23]	7 nM
C=CC(=O)N1CC(NC(=O)c2c(Cl)nc(CNc3n[nH]c4cc(Cl)c(C(C)(C)C)cc34)n2CCCC)C1 [US12065430, Example 87]	14 nM
C=CC(=O)N1C[C@@H](C)[C@@H](NC(=O)c2c(F)nc(CNc3n[nH]c4cc(Cl)c(C(C)(C)C)cc34)n2C)C1 [US12065430, Example 74]	36 nM
C=CC(=O)N1CC(NC(=O)c2c(C(F)F)nc(CNc3n[nH]c4cc(Cl)c(C(C)(C)C)cc34)n2C2CCN(C(C)=O)C2)C1 (stereo not given) [US12065430, Example 96]	4 nM
